Patent US6416975B1 (Gliatech, Inc., priority 1998, dated 2002)
Blank lines part the entries; values can stand above or below the molecule they belong to.

What was measured:
[1] = biological target: T1, rat GlyT2 (Rattus norvegicus, UniProt P58295); conditions: Liu et al. 1993, cited from earlier work
T1 sequence (P58295 1-799): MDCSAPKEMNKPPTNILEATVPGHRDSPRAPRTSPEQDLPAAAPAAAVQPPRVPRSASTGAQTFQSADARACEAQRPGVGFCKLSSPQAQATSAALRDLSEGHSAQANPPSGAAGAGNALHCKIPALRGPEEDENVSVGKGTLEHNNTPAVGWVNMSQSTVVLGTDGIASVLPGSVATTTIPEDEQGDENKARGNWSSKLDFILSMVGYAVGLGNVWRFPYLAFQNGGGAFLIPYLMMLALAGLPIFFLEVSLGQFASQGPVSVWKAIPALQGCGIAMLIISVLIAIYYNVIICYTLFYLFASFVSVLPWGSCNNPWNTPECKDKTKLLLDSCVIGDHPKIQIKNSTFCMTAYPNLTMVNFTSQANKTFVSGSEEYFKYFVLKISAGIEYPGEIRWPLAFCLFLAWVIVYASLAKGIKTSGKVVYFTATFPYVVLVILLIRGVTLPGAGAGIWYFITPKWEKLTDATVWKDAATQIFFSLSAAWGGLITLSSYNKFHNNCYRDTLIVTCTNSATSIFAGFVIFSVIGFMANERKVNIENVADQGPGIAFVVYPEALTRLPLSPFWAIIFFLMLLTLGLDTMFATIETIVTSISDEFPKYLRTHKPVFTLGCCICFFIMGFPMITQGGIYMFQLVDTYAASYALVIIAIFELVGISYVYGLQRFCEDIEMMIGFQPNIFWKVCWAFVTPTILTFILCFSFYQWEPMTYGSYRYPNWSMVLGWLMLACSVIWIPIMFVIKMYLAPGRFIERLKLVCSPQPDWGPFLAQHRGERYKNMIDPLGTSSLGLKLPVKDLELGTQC

[2] = biological target: T2, hGlyT2 transporter (full-length) (Homo sapiens, UniProt Q9Y345, G24S/N188D/Q362L/R74W/S155G/T582S/V431A); conditions: full-length hGlyT2, COS-7 cells
T2 sequence (Q9Y345 1-797 G24S/R74W/S155G/N188D/Q362L/V431A/T582S): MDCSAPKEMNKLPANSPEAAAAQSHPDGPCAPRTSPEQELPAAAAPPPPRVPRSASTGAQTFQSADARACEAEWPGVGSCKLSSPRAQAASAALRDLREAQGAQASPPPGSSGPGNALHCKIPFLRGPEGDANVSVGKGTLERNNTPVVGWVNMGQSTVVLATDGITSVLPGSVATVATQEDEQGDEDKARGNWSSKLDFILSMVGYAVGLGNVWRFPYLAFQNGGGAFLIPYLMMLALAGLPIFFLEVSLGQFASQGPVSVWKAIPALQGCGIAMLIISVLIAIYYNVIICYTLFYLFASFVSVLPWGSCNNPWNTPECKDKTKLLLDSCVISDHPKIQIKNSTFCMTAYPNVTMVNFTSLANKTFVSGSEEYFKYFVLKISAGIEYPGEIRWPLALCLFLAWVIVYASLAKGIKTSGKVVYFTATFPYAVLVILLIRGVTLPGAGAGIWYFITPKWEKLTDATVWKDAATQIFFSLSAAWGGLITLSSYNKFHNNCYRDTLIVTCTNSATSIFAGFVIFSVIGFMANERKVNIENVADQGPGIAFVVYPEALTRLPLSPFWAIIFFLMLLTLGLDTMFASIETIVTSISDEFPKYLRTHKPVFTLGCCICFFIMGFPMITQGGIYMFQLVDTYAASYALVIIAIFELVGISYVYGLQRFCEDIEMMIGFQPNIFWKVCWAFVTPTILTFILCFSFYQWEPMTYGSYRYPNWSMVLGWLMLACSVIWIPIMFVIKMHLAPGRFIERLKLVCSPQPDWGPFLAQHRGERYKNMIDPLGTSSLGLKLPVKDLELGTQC

[3] = biological target: T3, truncated hGlyT2 (start at Met-154, lacking the first 153 amino acids) (Homo sapiens, UniProt Q9Y345, N188D/Q362L/S155G/T582S/V431A); conditions: truncated hGlyT2, COS-7 cells
T3 sequence (Q9Y345 154-797 S155G/N188D/Q362L/V431A/T582S): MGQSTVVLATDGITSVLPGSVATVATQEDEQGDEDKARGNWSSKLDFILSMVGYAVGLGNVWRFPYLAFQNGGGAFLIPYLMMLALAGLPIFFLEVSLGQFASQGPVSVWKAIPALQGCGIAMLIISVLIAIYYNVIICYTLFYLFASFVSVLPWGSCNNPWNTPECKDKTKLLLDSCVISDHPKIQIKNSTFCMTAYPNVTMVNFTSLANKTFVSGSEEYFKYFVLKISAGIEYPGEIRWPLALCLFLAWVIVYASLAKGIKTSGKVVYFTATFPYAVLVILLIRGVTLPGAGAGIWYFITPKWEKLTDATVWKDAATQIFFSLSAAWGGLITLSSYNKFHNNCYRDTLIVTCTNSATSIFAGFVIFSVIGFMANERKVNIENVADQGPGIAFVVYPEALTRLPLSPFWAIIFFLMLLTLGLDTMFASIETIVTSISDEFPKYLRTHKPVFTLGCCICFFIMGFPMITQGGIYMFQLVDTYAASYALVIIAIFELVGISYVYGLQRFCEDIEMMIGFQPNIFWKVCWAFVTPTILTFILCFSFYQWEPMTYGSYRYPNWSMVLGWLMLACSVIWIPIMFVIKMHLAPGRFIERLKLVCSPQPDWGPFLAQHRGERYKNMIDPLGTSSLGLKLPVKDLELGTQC

[4] = biological target: T4, GlyT1 (Homo sapiens, UniProt P48067); conditions: sarcosine concentration exceeds 200 μM; cited from earlier work
T4 sequence (P48067 1-706): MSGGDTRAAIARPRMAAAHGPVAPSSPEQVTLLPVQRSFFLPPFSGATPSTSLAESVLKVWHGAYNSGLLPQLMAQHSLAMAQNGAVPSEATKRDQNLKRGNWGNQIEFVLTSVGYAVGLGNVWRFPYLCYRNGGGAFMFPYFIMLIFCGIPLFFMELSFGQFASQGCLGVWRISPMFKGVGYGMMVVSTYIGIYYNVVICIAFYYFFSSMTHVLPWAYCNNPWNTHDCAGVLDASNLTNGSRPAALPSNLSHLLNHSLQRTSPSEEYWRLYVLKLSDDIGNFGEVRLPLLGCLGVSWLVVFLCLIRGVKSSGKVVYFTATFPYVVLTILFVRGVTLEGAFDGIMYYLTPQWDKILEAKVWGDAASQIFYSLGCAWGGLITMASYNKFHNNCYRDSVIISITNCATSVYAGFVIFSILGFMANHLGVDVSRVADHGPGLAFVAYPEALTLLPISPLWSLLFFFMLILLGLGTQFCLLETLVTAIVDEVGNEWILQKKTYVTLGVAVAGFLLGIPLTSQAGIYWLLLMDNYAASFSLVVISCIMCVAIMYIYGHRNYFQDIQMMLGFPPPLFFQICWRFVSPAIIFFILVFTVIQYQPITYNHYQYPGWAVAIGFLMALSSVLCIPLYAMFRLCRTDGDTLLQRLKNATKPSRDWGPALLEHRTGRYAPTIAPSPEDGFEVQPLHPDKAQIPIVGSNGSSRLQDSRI

[5] = substrate: NCC(=O)O; assay: cells, lysate or membranes; conditions: pH 7.4
[6] = 1 mM sarcosine, 15 min pretreatment

Vmax of glycine uptake (Eadie-Hofstee) [2]: 190±3 pmol glycine/mg protein/min
Vmax of glycine uptake [3]: 67±3 pmol glycine/mg protein/min
Molecule: NCC(=O)O [glycine]
Km ([1]; read-out: Km reported for rat GlyT2): 13 µM

reduction of glycine uptake [2, 6]: less than 15%
effect of increasing concentrations of sarcosine on glycine uptake (FIG. 5) [2]: insensitive to sarcosine inhibition
reduction of glycine uptake [3, 6]: less than 15%
effect of increasing concentrations of sarcosine on glycine uptake (FIG. 5) [3]: insensitive to sarcosine inhibition
Molecule: CNCC(=O)O [sarcosine]
inhibition of rat GlyT2-mediated glycine uptake ([1]; sarcosine 1 mM): 10-20%
inhibition of GlyT1-mediated glycine uptake [4]: almost completely inhibited

B1: truncated hGlyT2 (start at Met-154, lacking the first 153 amino acids) (Homo sapiens; N188D/Q362L/S155G/T582S/V431A) (protein)
chain: MGQSTVVLATDGITSVLPGSVATVATQEDEQGDEDKARGNWSSKLDFILSMVGYAVGLGNVWRFPYLAFQNGGGAFLIPYLMMLALAGLPIFFLEVSLGQFASQGPVSVWKAIPALQGCGIAMLIISVLIAIYYNVIICYTLFYLFASFVSVLPWGSCNNPWNTPECKDKTKLLLDSCVISDHPKIQIKNSTFCMTAYPNVTMVNFTSLANKTFVSGSEEYFKYFVLKISAGIEYPGEIRWPLALCLFLAWVIVYASLAKGIKTSGKVVYFTATFPYAVLVILLIRGVTLPGAGAGIWYFITPKWEKLTDATVWKDAATQIFFSLSAAWGGLITLSSYNKFHNNCYRDTLIVTCTNSATSIFAGFVIFSVIGFMANERKVNIENVADQGPGIAFVVYPEALTRLPLSPFWAIIFFLMLLTLGLDTMFASIETIVTSISDEFPKYLRTHKPVFTLGCCICFFIMGFPMITQGGIYMFQLVDTYAASYALVIIAIFELVGISYVYGLQRFCEDIEMMIGFQPNIFWKVCWAFVTPTILTFILCFSFYQWEPMTYGSYRYPNWSMVLGWLMLACSVIWIPIMFVIKMHLAPGRFIERLKLVCSPQPDWGPFLAQHRGERYKNMIDPLGTSSLGLKLPVKDLELGTQC
Km ([5]; other: truncated hGlyT2, COS-7 cells, 37.0 °C): 9 ± 1 µM

B2: hGlyT2 transporter (full-length) (Homo sapiens; G24S/N188D/Q362L/R74W/S155G/T582S/V431A) (protein)
chain: MDCSAPKEMNKLPANSPEAAAAQSHPDGPCAPRTSPEQELPAAAAPPPPRVPRSASTGAQTFQSADARACEAEWPGVGSCKLSSPRAQAASAALRDLREAQGAQASPPPGSSGPGNALHCKIPFLRGPEGDANVSVGKGTLERNNTPVVGWVNMGQSTVVLATDGITSVLPGSVATVATQEDEQGDEDKARGNWSSKLDFILSMVGYAVGLGNVWRFPYLAFQNGGGAFLIPYLMMLALAGLPIFFLEVSLGQFASQGPVSVWKAIPALQGCGIAMLIISVLIAIYYNVIICYTLFYLFASFVSVLPWGSCNNPWNTPECKDKTKLLLDSCVISDHPKIQIKNSTFCMTAYPNVTMVNFTSLANKTFVSGSEEYFKYFVLKISAGIEYPGEIRWPLALCLFLAWVIVYASLAKGIKTSGKVVYFTATFPYAVLVILLIRGVTLPGAGAGIWYFITPKWEKLTDATVWKDAATQIFFSLSAAWGGLITLSSYNKFHNNCYRDTLIVTCTNSATSIFAGFVIFSVIGFMANERKVNIENVADQGPGIAFVVYPEALTRLPLSPFWAIIFFLMLLTLGLDTMFASIETIVTSISDEFPKYLRTHKPVFTLGCCICFFIMGFPMITQGGIYMFQLVDTYAASYALVIIAIFELVGISYVYGLQRFCEDIEMMIGFQPNIFWKVCWAFVTPTILTFILCFSFYQWEPMTYGSYRYPNWSMVLGWLMLACSVIWIPIMFVIKMHLAPGRFIERLKLVCSPQPDWGPFLAQHRGERYKNMIDPLGTSSLGLKLPVKDLELGTQC
Km ([5]; other: full-length hGlyT2, COS-7 cells, 15 min at 37° C.): 10 ± 0.4 µM
